Experimental data published in patent publication US7964531B2, “3-phenoxy-4-pyridazinol derivatives and herbicidal composition containing the same” (Mitsui Chemicals Agro, Inc., priority 2001, dated 2011).
Counter-ions that a name gives are not always drawn.

melting point	SMILES
91 to 93 °C	Cc1ccccc1Oc1nnc(Cl)cc1OC(=O)c1ccccc1C [Compound No. 1446, 6-Chloro-3-(2-methylphenoxy)-4-pyridazinyl 2-methylbenzoate]
63 to 64 °C	N#CC1(c2ccccc2Oc2nnc(Cl)cc2O)CC1 [Compound No. 173, 1-{2-[(6-Chloro-4-hydroxy-3-pyridazinyl)oxy]phenyl}cyclopropanecarbonitrile]
103 to 105 °C	Cc1cccc(C2CC2)c1Oc1nnc(Cl)cc1OC(=O)N(C(C)C)C(C)C
238 to 243 °C	Cc1ccccc1Oc1nncc(Cl)c1O [Compound No. 45, 5-Chloro-3-(2-methylphenoxy)-4-pyridazinol]
259 to 260 °C	Cc1cc(O)c(Oc2ccccc2C(C)C)nn1 [Compound No. 2418, 3-(2-Isopropylphenoxy)-6-methyl-4-pyridazinol]
106 to 108 °C	Cc1ccc(S(=O)(=O)Oc2cc(Cl)nnc2Oc2ccccc2-c2ccccc2)cc1 [Compound No. 2231, 3-([1,1′-Biphenyl]-2-yloxy)-6-chloro-4-pyridazinyl 4-methylbenzenesulfonate]
99 to 100 °C	O=[N+]([O-])c1ccccc1Oc1nnc(Cl)cc1O [Compound No. 383, 6-Chloro-3-(2-nitrophenoxy)-4-pyridazinol]
249 to 250 °C	Cc1cc(F)ccc1Oc1nnc(Cl)cc1O [Compound No. 557, 6-Chloro-3-(4-fluoro-2-methylphenoxy)-4-pyridazinol]
200 to 202.5 °C	C=CCc1ccccc1Oc1nnc(Cl)cc1O [Compound No. 307, 3-(2-Allylphenoxy)-6-chloro-4-pyridazinol]
175 to 177 °C	Oc1cc(Cl)nnc1Oc1ccccc1C1CC1(F)Cl (centres unmarked) [Compound No. 2519, 6-Chloro-3-[2-(2-chloro-2-fluorocyclopropyl)phenoxy]-4-pyridazinol]
217 to 219 °C	Cc1ccc2c(c1Oc1nnc(Cl)cc1O)OCC2 [Compound No. 1096, 6-Chloro-3-[(6-methyl-2,3-dihydro-1-benzofuran-7-yl)oxy]-4-pyridazinol]
140 to 143 °C	Cc1ccc(S(=O)(=O)Oc2c(Cl)cnnc2Oc2ccccc2C)cc1 (as salt: benzene sulfonate) [Compound No. 66, 5-Chloro-3-(2-methylphenoxy)-4-pyridazinyl 4-methylbenzene sulfonate]
207 to 209 °C	Oc1cc(Cl)nnc1Oc1ccccc1-c1ccsc1 [Compound No. 361, 6-Chloro-3-[2-(3-thienyl)phenoxy]-4-pyridazinol]
246 to 253 °C	COc1ccc(Br)c(Oc2nnc(Cl)cc2O)c1C [Compound No. 1066, 3-(6-Bromo-3-methoxy-2-methylphenoxy)-6-chloro-4-pyridazinol]
110 to 115 °C	Cc1ccccc1Oc1nnc(Cl)c(Oc2ccccc2C)c1O [Compound No. 2395, 6-Chloro-3,5-bis(2-methylphenoxy)-4-pyridazinol]
187 to 188 °C	C=C(C)c1ccccc1Oc1nnc(Cl)cc1O [Compound No. 304, 6-Chloro-3-(2-isopropenylphenoxy)-4-pyridazinol]
233 to 238 °C	Oc1cc(Cl)nnc1Oc1cccc(Cl)c1Cl [Compound No. 443, 6-Chloro-3-(2,3-dichlorophenoxy)-4-pyridazinol]
99 to 100 °C	Cc1ccc(S(=O)(=O)Oc2cc(Cl)nnc2Oc2ccccc2C(C)C)cc1 [Compound No. 2222, 6-Chloro-3-(2-isopropylphenoxy)-4-pyridazinyl 4-methylbenzenesulfonate]
220 to 221 °C	COc1cccc(Br)c1Oc1nnc(Cl)cc1O [Compound No. 778, 3-(2-Bromo-6-methoxyphenoxy)-6-chloro-4-pyridazinol]
96 to 97 °C	CCS(=O)(=O)Oc1cc(Cl)nnc1Oc1c(C)cccc1C1CC1 [Compound No. 2034, 6-Chloro-3-(2-cyclopropyl-6-methylphenoxy)-4-pyridazinyl ethanesulfonate]
213 to 216 °C	Oc1cc(Cl)nnc1Oc1cccc(C(F)(F)F)c1 [Compound No. 418, 6-Chloro-3-[3-(trifluoromethyl)phenoxy]-4-pyridazinol]
199 to 201 °C	COc1cccc(OC)c1Oc1nnc(Cl)cc1O [Compound No. 987, 6-Chloro-3-(2,6-dimethoxyphenoxy)-4-pyridazinol]
157 to 165 °C	COC1(c2ccccc2Oc2nnc(Cl)cc2O)CC1 [Compound No. 202, 6-Chloro-3-[2-(1-methoxycyclopropyl)phenoxy]-4-pyridazinol]
258 to 260 °C	Cc1cc(C)c(F)c(Oc2nnc(Cl)cc2O)c1C [Compound No. 2597, 6-Chloro-3-(2-fluoro-3,5,6-trimethylphenoxy)-4-pyridazinol]
127 to 128 °C	Cc1cccc(C2CC2)c1Oc1nnc(Cl)cc1OC(=O)c1ccc(C(F)(F)F)cc1 [Compound No. 2988, 6-Chloro-3-(2-cyclopropyl-6-methylphenoxy)-4-pyridazinyl 4-(trifluoromethyl)benzoate]

melting point	SMILES
231 to 234 °C	COc1cccc(Oc2nnc(Cl)cc2O)c1I [Compound No. 2551, 6-Chloro-3-(2-iodo-3-methoxyphenoxy)-4-pyridazinol]
114 to 116 °C	COc1ccccc1C(=O)Oc1cc(Cl)nnc1Oc1ccccc1C [Compound No. 1509, 6-Chloro-3-(2-methylphenoxy)-4-pyridazinyl 2-methoxybenzoate]
209 to 210 °C	COc1c(C)cc(C)c(C)c1Oc1nnc(Cl)cc1O [Compound No. 1128, 6-Chloro-3-(2-methoxy-3,5,6-trimethylphenoxy)-4-pyridazinol]
182 to 185 °C	CC(=O)c1cc(O)c(Oc2ccccc2C)nn1 [Compound No. 2455, 1-[5-Hydroxy-6-(2-methylphenoxy)-3-pyridazinyl]ethanone]
181.5 to 182 °C	CC(C)c1ccccc1Oc1nnccc1O [Compound No. 6, 3-(2-Isopropylphenoxy)-4-pyridazinol]
107 to 109 °C	Cc1ccccc1Oc1nnc(Cl)cc1OC(=O)N(C)C
46 to 47 °C	Cc1ccccc1Oc1nnc(Cl)cc1OC(=O)OCC(C)C [Compound No. 1757, 6-Chloro-3-(2-methylphenoxy)-4-pyridazinyl isobutyl carbonate]
241 to 248 °C	Oc1cc(Cl)nnc1Oc1ccc(F)cc1 [Compound No. 426, 6-Chloro-3-(4-fluorophenoxy)-4-pyridazinol]
202 to 203 °C	Oc1cc(Cl)nnc1Oc1cccc(I)c1 [Compound No. 412, 6-Chloro-3-(3-iodophenoxy)-4-pyridazinol]
139 to 142 °C	Cc1cccc(C2CC2)c1Oc1nnc(Cl)cc1OC(=O)c1ccc(C(C)(C)C)cc1 [Compound No. 1575, 6-Chloro-3-(2-cyclopropyl-6-methylphenoxy)-4-pyridazinyl 4-tert-butylbenzoate]
235 to 235.5 °C	Cc1cc(Cl)ccc1Oc1nnc(Cl)cc1O [Compound No. 558, 6-Chloro-3-(4-chloro-2-methylphenoxy)-4-pyridazinol]
191 to 200 °C	Cc1cccc(Oc2nnc(Cl)cc2O)c1[N+](=O)[O-] [Compound No. 498, 6-Chloro-3-(3-methyl-2-nitrophenoxy)-4-pyridazinol]
98 to 100 °C	C=C(C)C(=O)Oc1cc(Cl)nnc1Oc1c(C)cccc1C1CC1 [Compound No. 2677, 6-Chloro-3-(2-cyclopropyl-6-methylphenoxy)-4-pyridazinyl 2-methylacrylate]
163 to 164 °C	C/C=C/c1cccc(/C=C/C)c1Oc1nnc(Cl)cc1O [Compound No. 979, 6-Chloro-3-{2,6-di[(1E)-1-propenyl]phenoxy}-4-pyridazinol]
208 to 210 °C (dec.)	Oc1cc(Cl)nnc1Oc1ccccc1C1CC1(Br)Br (centres unmarked) [Compound No. 266, 6-Chloro-3-[2-(2,2-dibromocyclopropyl)phenoxy]-4-pyridazinol]
65 to 66 °C	CCC(C)c1ccccc1Oc1nnc(Cl)cc1OS(=O)(=O)c1ccc(C)cc1 (centres unmarked) [Compound No. 2223, 3-(2-s-Butylphenoxy)-6-chloro-4-pyridazinyl 4-methylbenzenesulfonate]
184 to 185 °C	Oc1cc(Cl)nnc1Oc1cccc(OCc2ccccc2)c1 [Compound No. 2547, 3-[3-(Benzyloxy)phenoxy]-6-chloro-4-pyridazinol]
122 to 125 °C	O=C(Oc1cc(Cl)nnc1Oc1ccccc1C1CC1)C1CC1 [Compound No. 1266, 6-Chloro-3-(2-cyclopropylphenoxy)-4-pyridazinyl cyclopropanecarboxylate]
218 to 233 °C	CC(C)c1cccc(Cl)c1Oc1nnc(Cl)cc1O [Compound No. 738, 6-Chloro-3-(2-chloro-6-isopropylphenoxy)-4-pyridazinol]
189 to 192 °C	CON=C(C)c1ccc(Oc2nnc(Cl)cc2O)c(C)c1 [Compound No. 2571, 1-{4-[(6-Chloro-4-hydroxy-3-pyridazinyl)oxy]-3-methylphenyl}ethanone O-methyloxime]
124 to 127 °C	CN(C)c1ccc(C=O)c(Oc2nnc(Cl)cc2O)c1 [Compound No. 692, 2-[(6-Chloro-4-hydroxy-3-pyridazinyl)oxy]-4-(dimethylamino)benzaldehyde]
150 to 159 °C	Cc1ccc(C2CC2)c(Oc2nnc(Cl)cc2O)c1 [Compound No. 662, 6-Chloro-3-(2-cyclopropyl-5-methylphenoxy)-4-pyridazinol]
165 to 167 °C	Oc1cc(Cl)nnc1Oc1ccccc1-c1nc2ccccc2o1 [Compound No. 375, 3-[2-(1,3-Benzoxazol-2-yl)phenoxy]-6-chloro-4-pyridazinol]
263 to 268 °C	Cc1ccc(Br)c(Oc2nnc(Cl)cc2O)c1C [Compound No. 1058, 3-(6-Bromo-2,3-dimethylphenoxy)-6-chloro-4-pyridazinol]

SMILES	melting point
Oc1cc(Cl)nnc1Oc1cccc2c1CC1CC21 (centres unmarked) [Compound No. 516, 3-(1,1a,6,6a-Tetrahydrocyclopropa[a]inden-5-yloxy)-6-chloro-4-pyridazinol]	211 to 213 °C
